5 compounds from the supplement of paper PMC10307832 can be followed below.

For the first experiment, the system named is NCI-H838. The experiment in a line: relative viability (nuclei count vs DMSO), 5 days (fraction); higher = more cells survive. The settings on record: first compound 0.8 µM. In outline:
(§1)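 Cells from lung cancer lines were seeded into 1536-well plates and, one day later, dosed by pin tool. Treatments were either a single drug or a fixed dose of an anchor drug with five library-drug doses (not always all listed) in √10 steps. After 5 days, nuclei were stained in a one-step fixation (final 0.05% Triton X-100, 1% formaldehyde, 1 ug/ml Hoechst) and counted on 4× images, and relative viability is the treated-to-vehicle nuclei ratio, as the median of duplicate plates.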
`C=C1C(=O)O[C@@H](CCCCCCCC)[C@@H]1C(=O)O` [C-75] + CC(=O)c1c(C)c2cnc(Nc3ccc(N4CCNCC4)cn3)nc2n(C2CCCC2)c1=O [Palbociclib] (partner 0.5 µM) yielded a relative viability of 0.194.

Staying with this experiment, now noted: first compound 2.53 µM.
For `Oc1nc(-c2ccc(C(F)(F)F)cc2)nc2c1CSCC2` [XAV939] + O=C(CCCCCCC(=O)Nc1ccccc1)NO [Vorinostat] (partner 1 µM), the relative viability came to 0.558.

Turning to `C=C1C(=O)O[C@@H](CCCCCCCC)[C@@H]1C(=O)O` [C-75] + Nc1nc2[nH]cc(CCc3ccc(C(=O)N[C@@H](CCC(=O)O)C(=O)O)cc3)c2c(=O)[nH]1 [Pemetrexed] (partner 0.2 µM), the relative viability was found to be 0.18.

For `Oc1nc(-c2ccc(C(F)(F)F)cc2)nc2c1CSCC2` [XAV939] + O=C(c1cc(Cc2n[nH]c(=O)c3ccccc23)ccc1F)N1CCN(C(=O)C2CC2)CC1 [Olaparib] (partner 8 µM), the relative viability amounted to 0.398.

The compound `Oc1nc(-c2ccc(C(F)(F)F)cc2)nc2c1CSCC2` [XAV939] + CC(=O)c1c(C)c2cnc(Nc3ccc(N4CCNCC4)cn3)nc2n(C2CCCC2)c1=O [Palbociclib] (partner 0.5 µM) displayed a relative viability of 0.148.

The compound `C=C1C(=O)O[C@@H](CCCCCCCC)[C@@H]1C(=O)O` [C-75] + CC(=O)c1c(C)c2cnc(Nc3ccc(N4CCNCC4)cn3)nc2n(C2CCCC2)c1=O [Palbociclib] (partner 0.5 µM) yielded a relative viability of 0.207.

Staying with this experiment, now noted: first compound 8 µM.
Compound `C=C1C(=O)O[C@@H](CCCCCCCC)[C@@H]1C(=O)O` [C-75] + Nc1nc2[nH]cc(CCc3ccc(C(=O)N[C@@H](CCC(=O)O)C(=O)O)cc3)c2c(=O)[nH]1 [Pemetrexed] (partner 0.2 µM) returned a relative viability of 0.239.

Regarding `C=C1C(=O)O[C@@H](CCCCCCCC)[C@@H]1C(=O)O` [C-75] + CC(=O)c1c(C)c2cnc(Nc3ccc(N4CCNCC4)cn3)nc2n(C2CCCC2)c1=O [Palbociclib] (partner 0.5 µM), the relative viability was 0.206.

The subject of the next experiment is PC-14. Described as above. The settings on record: first compound 0.08 µM. The method in brief:
as §1
Compound `Oc1nc(-c2ccc(C(F)(F)F)cc2)nc2c1CSCC2` [XAV939] + O=C(CCCCCCC(=O)Nc1ccccc1)NO [Vorinostat] (partner 1 µM) registered a relative viability of 0.96.

As for `C=C1C(=O)O[C@@H](CCCCCCCC)[C@@H]1C(=O)O` [C-75] + Nc1nc2[nH]cc(CCc3ccc(C(=O)N[C@@H](CCC(=O)O)C(=O)O)cc3)c2c(=O)[nH]1 [Pemetrexed] (partner 0.2 µM), the relative viability came to 0.141.

In turn, `Oc1nc(-c2ccc(C(F)(F)F)cc2)nc2c1CSCC2` [XAV939] + O=C(c1cc(Cc2n[nH]c(=O)c3ccccc23)ccc1F)N1CCN(C(=O)C2CC2)CC1 [Olaparib] (partner 8 µM) had a relative viability of 0.305.

Take `Oc1nc(-c2ccc(C(F)(F)F)cc2)nc2c1CSCC2` [XAV939] + CC(=O)c1c(C)c2cnc(Nc3ccc(N4CCNCC4)cn3)nc2n(C2CCCC2)c1=O [Palbociclib] (partner 0.5 µM): the relative viability was 0.723.

On to `C=C1C(=O)O[C@@H](CCCCCCCC)[C@@H]1C(=O)O` [C-75] + CC(=O)c1c(C)c2cnc(Nc3ccc(N4CCNCC4)cn3)nc2n(C2CCCC2)c1=O [Palbociclib] (partner 0.5 µM), for which the relative viability was found to be 0.54.

The same experiment, now with this note: first compound 0.253 µM.
On to `Oc1nc(-c2ccc(C(F)(F)F)cc2)nc2c1CSCC2` [XAV939] + O=C(CCCCCCC(=O)Nc1ccccc1)NO [Vorinostat] (partner 1 µM), for which the relative viability was 0.622.

`C=C1C(=O)O[C@@H](CCCCCCCC)[C@@H]1C(=O)O` [C-75] + Nc1nc2[nH]cc(CCc3ccc(C(=O)N[C@@H](CCC(=O)O)C(=O)O)cc3)c2c(=O)[nH]1 [Pemetrexed] (partner 0.2 µM) gave a relative viability of 0.146.

`Oc1nc(-c2ccc(C(F)(F)F)cc2)nc2c1CSCC2` [XAV939] + O=C(c1cc(Cc2n[nH]c(=O)c3ccccc23)ccc1F)N1CCN(C(=O)C2CC2)CC1 [Olaparib] (partner 8 µM) displayed a relative viability of 0.208.

`Oc1nc(-c2ccc(C(F)(F)F)cc2)nc2c1CSCC2` [XAV939] + CC(=O)c1c(C)c2cnc(Nc3ccc(N4CCNCC4)cn3)nc2n(C2CCCC2)c1=O [Palbociclib] (partner 0.5 µM): the relative viability stood at 0.47.

`C=C1C(=O)O[C@@H](CCCCCCCC)[C@@H]1C(=O)O` [C-75] + CC(=O)c1c(C)c2cnc(Nc3ccc(N4CCNCC4)cn3)nc2n(C2CCCC2)c1=O [Palbociclib] (partner 0.5 µM): the relative viability is 0.546.

The same experiment, now with this note: first compound 0.8 µM.
In turn, `Oc1nc(-c2ccc(C(F)(F)F)cc2)nc2c1CSCC2` [XAV939] + O=C(CCCCCCC(=O)Nc1ccccc1)NO [Vorinostat] (partner 1 µM) yielded a relative viability of 0.789.

`C=C1C(=O)O[C@@H](CCCCCCCC)[C@@H]1C(=O)O` [C-75] + Nc1nc2[nH]cc(CCc3ccc(C(=O)N[C@@H](CCC(=O)O)C(=O)O)cc3)c2c(=O)[nH]1 [Pemetrexed] (partner 0.2 µM): the relative viability amounted to 0.137.

Take `Oc1nc(-c2ccc(C(F)(F)F)cc2)nc2c1CSCC2` [XAV939] + O=C(c1cc(Cc2n[nH]c(=O)c3ccccc23)ccc1F)N1CCN(C(=O)C2CC2)CC1 [Olaparib] (partner 8 µM): the relative viability worked out at 0.313.

Compound `Oc1nc(-c2ccc(C(F)(F)F)cc2)nc2c1CSCC2` [XAV939] + CC(=O)c1c(C)c2cnc(Nc3ccc(N4CCNCC4)cn3)nc2n(C2CCCC2)c1=O [Palbociclib] (partner 0.5 µM) had a relative viability of 0.451.

For `C=C1C(=O)O[C@@H](CCCCCCCC)[C@@H]1C(=O)O` [C-75] + CC(=O)c1c(C)c2cnc(Nc3ccc(N4CCNCC4)cn3)nc2n(C2CCCC2)c1=O [Palbociclib] (partner 0.5 µM), the relative viability was determined as 0.504.

Still in this experiment, the particulars now being: first compound 2.53 µM.
`Oc1nc(-c2ccc(C(F)(F)F)cc2)nc2c1CSCC2` [XAV939] + O=C(CCCCCCC(=O)Nc1ccccc1)NO [Vorinostat] (partner 1 µM) showed a relative viability of 0.598.

Take `C=C1C(=O)O[C@@H](CCCCCCCC)[C@@H]1C(=O)O` [C-75] + Nc1nc2[nH]cc(CCc3ccc(C(=O)N[C@@H](CCC(=O)O)C(=O)O)cc3)c2c(=O)[nH]1 [Pemetrexed] (partner 0.2 µM): the relative viability worked out at 0.141.

As to `Oc1nc(-c2ccc(C(F)(F)F)cc2)nc2c1CSCC2` [XAV939] + O=C(c1cc(Cc2n[nH]c(=O)c3ccccc23)ccc1F)N1CCN(C(=O)C2CC2)CC1 [Olaparib] (partner 8 µM), the relative viability came to 0.248.

For `Oc1nc(-c2ccc(C(F)(F)F)cc2)nc2c1CSCC2` [XAV939] + CC(=O)c1c(C)c2cnc(Nc3ccc(N4CCNCC4)cn3)nc2n(C2CCCC2)c1=O [Palbociclib] (partner 0.5 µM), the relative viability is 0.375.

`C=C1C(=O)O[C@@H](CCCCCCCC)[C@@H]1C(=O)O` [C-75] + CC(=O)c1c(C)c2cnc(Nc3ccc(N4CCNCC4)cn3)nc2n(C2CCCC2)c1=O [Palbociclib] (partner 0.5 µM) displayed a relative viability of 0.453.

The same experiment, now with this note: first compound 8 µM.
As for `C=C1C(=O)O[C@@H](CCCCCCCC)[C@@H]1C(=O)O` [C-75] + Nc1nc2[nH]cc(CCc3ccc(C(=O)N[C@@H](CCC(=O)O)C(=O)O)cc3)c2c(=O)[nH]1 [Pemetrexed] (partner 0.2 µM), the relative viability turned out to be 0.131.

Take `C=C1C(=O)O[C@@H](CCCCCCCC)[C@@H]1C(=O)O` [C-75] + CC(=O)c1c(C)c2cnc(Nc3ccc(N4CCNCC4)cn3)nc2n(C2CCCC2)c1=O [Palbociclib] (partner 0.5 µM): the relative viability came out at 0.445.

A further experiment concerns RERF-LC-KJ. Described as above. To be noted: first compound 0.08 µM. The method in brief:
as §1
In turn, `Oc1nc(-c2ccc(C(F)(F)F)cc2)nc2c1CSCC2` [XAV939] + O=C(CCCCCCC(=O)Nc1ccccc1)NO [Vorinostat] (partner 1 µM) displayed a relative viability of 0.707.
